For 35 molecules, EC50 results are on record in US20160045505A1, “COMPOUNDS AND COMPOSITIONS FOR THE TREATMENT OF PARASITIC DISEASES” (NOVARTIS AG, priority 2013, published 2016).

Read-outs that look alike come from different tables or passages of the source.

Test [1] concerns Trypanosoma brucei Lister 427 strain, bloodstream form. Description: Assay for proliferation of kinetoplastid parasite Trypanosoma brucei (Cell Titer Glo, 48 hours). It counts as cell-based. Particulars: Trypanosoma brucei, read-out: T. brucei EC50. The gist of the method: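 Bloodstream-form T. brucei Lister 427 in HMI-9 medium was exposed to compound (DMSO vehicle) for 48 hours at 37° C, 5% CO2. Parasite growth was read as ATP by CellTiter-Glo luminescence, with EC50 calculated from percent inhibition.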

The test system of test [2] is Leishmania donovani axenic amastigote parasites. Kind of test: Leishmania donovani axenic amastigote proliferation assay (Cell TiterGlo luminescence, 2 day incubation). The following applies: Leishmania donovani, axenic amastigotes, inhibition of proliferation; read-out: L. donovani amastigotes EC50. It counts as cell-based.
The subject of test [3] is L. donovani HU3 strain in mouse peritoneal macrophages. Kind of test: Assay for proliferation of Leishmania parasites in infected mouse peritoneal macrophages (SybrGreen staining, high-content imaging, 5 days). It counts as cell-based, Leishmania donovani. The following applies: Leishmania donovani, Peritoneal macrophage, L. donovani in mouse peritoneal macrophages, inhibition of proliferation; read-out: L. donovani Macrophage EC50.

Test [4] relates to Trypanosoma cruzi amastigotes (Tulahuen strain expressing Lac-Z) cultured in 3T3 fibroblast cells. Description: microbe, parasite or virus in culture. The class given is cell-based. Particulars: Trypanosoma cruzi, TULAHUEN, Fibroblast, T. cruzi amastigotes in 3T3 fibroblast cells, inhibition of proliferation; read-out: T cruzi EC50.
The mark [5] stands for this setting: T. brucei Lister 427 bloodstream form, inhibition of proliferation.

As to `CN(C)C(=O)Nc1ccc(F)c(-c2cn3cc(C(F)(F)F)cnc3n2)c1` [Compound 298], the EC50 in test [1] (setting [5]) was 0.355 µM; in test [2], 0.781 µM; in test [3], 2.23 µM; in test [4], 0.525 µM.
As to `O=C(Nc1ccc(F)c(-c2cn3cc(C(F)(F)F)cnc3n2)c1)N1CCC1` [Compound 299], the EC50 in test [1] (setting [5]) came to 0.034 µM; in test [2], 0.092 µM; in test [3], 0.178 µM; in test [4], 0.045 µM.
`O=C(Nc1ccc(F)c(-c2cn3cc(C(F)(F)F)cnc3n2)c1)N1CC(F)(F)C1` [Compound 300]: the EC50 in test [1] (setting [5]) came to 0.155 µM; in test [2], 0.09 µM; in test [3], 0.397 µM; in test [4] it was 0.148 µM.
For the molecule `CC(C)OC(=O)Nc1ccc(F)c(-c2cn3cc(C(F)(F)F)cnc3n2)c1` [Compound 301, isopropyl (4-fluoro-3-(6-(trifluoromethyl)imidazo[1,2-a]pyrimidin-2-yl)phenyl)carbamate], the EC50 in test [1] was 0.307 µM; in test [2], 0.727 µM; in test [3], above 32.4 µM; in test [4], 0.444 µM.
As for `COCCOC(=O)Nc1cnc2nc(-c3cc(NC(=O)c4oc(C)nc4C)ccc3F)cn2c1` [Compound 304], the EC50 in test [1] (setting [5]) was determined as 1.42 µM; in test [2], 0.539 µM; in test [3], 10.5 µM; in test [4], 2.37 µM.
Take `CCOC(=O)Nc1cnc2nc(-c3cc(NC(=O)c4oc(C)nc4C)ccc3F)cn2c1` [Compound 305]: the EC50 in test [1] (setting [5]) is 0.163 µM; in test [2], 0.112 µM; in test [3], 0.269 µM; in test [4], 0.499 µM.
For the molecule `Cc1nc(C)c(C(=O)Nc2ccc(F)c(-c3cn4cc(NC(=O)OC5CCCC5)cnc4n3)c2)o1` [Compound 306], the EC50 in test [1] (setting [5]) came to 0.36 µM; in test [2], 0.315 µM; in test [3], 0.835 µM; in test [4], 0.673 µM.
Take `Cc1nc(C)c(C(=O)Nc2ccc(F)c(-c3cn4cc(NC(=O)OCCF)cnc4n3)c2)o1` [Compound 307]: the EC50 is 0.356 µM in test [1] (setting [5]), 0.249 µM in test [2], 0.428 µM in test [3] and 2.54 µM in test [4].
`Cc1nc(C)c(C(=O)Nc2ccc(F)c(-c3cn4cc(NC(=O)OCC(C)C)cnc4n3)c2)o1` [Compound 308]: the EC50 in test [1] (setting [5]) was determined as 0.131 µM; in test [2], 0.211 µM; in test [3], 0.338 µM; in test [4] it was 0.329 µM.
Turning to `CCC(C)OC(=O)Nc1cnc2nc(-c3cc(NC(=O)c4oc(C)nc4C)ccc3F)cn2c1` (centres unmarked) [Compound 309], the concentration giving a half-maximal response (EC50) in test [1] (setting [5]) came out at 0.132 µM; in test [2], 0.109 µM; in test [3] it was 0.204 µM; in test [4], 0.275 µM.
In the case of `COC(=O)Nc1cnc2nc(-c3cc(NC(=O)c4oc(C)nc4C)ccc3F)cn2c1` [Compound 310], the EC50 worked out at 0.293 µM in test [1] (setting [5]), 0.243 µM in test [2], 0.564 µM in test [3] and 1.24 µM in test [4].
Turning to `C=C(C)OC(=O)Nc1cnc2nc(-c3cc(NC(=O)c4oc(C)nc4C)ccc3F)cn2c1` [Compound 311], the EC50 in test [1] (setting [5]) amounted to 1.67 µM; in test [2], 0.162 µM; in test [3], 12 µM; in test [4] it was 5.58 µM.
For `Cc1nc(C)c(C(=O)Nc2ccc(F)c(-c3cn4cc(NC(=O)OC5(C)CC5)cnc4n3)c2)o1` [Compound 312], the EC50 is 0.054 µM in test [1] (setting [5]), 0.12 µM in test [2], 0.139 µM in test [3] and 0.441 µM in test [4].
As for `COCCOC(=O)Nc1cnc2nc(-c3cc(NC(=O)N4CCCC4)ccc3F)cn2c1` [Compound 313], the EC50 in test [1] (setting [5]) is 0.502 µM; in test [2] it was 0.761 µM; in test [3], above 50 µM; in test [4], 13.3 µM.
For the molecule `CC(C)OC(=O)Nc1ccc(F)c(-c2cn3cc(-c4ccccn4)cnc3n2)c1` [Compound 314], the EC50 in test [1] (setting [5]) turned out to be 0.051 µM; in test [2], 0.046 µM; in test [3], 0.095 µM; in test [4], 0.015 µM.
The corresponding values for `Cc1nc(C)c(C(=O)Nc2ccc(F)c(-c3cn4cc(NS(=O)(=O)C(C)C)cnc4n3)c2)o1` [Compound 315, N-(4-fluoro-3-(6-(1-methylethylsulfonamido)imidazo[1,2-a]pyrimidin-2-yl)phenyl)-2,4-dimethyloxazole-5-carboxamide] are 4.41 µM, 2.52 µM, 19.1 µM and above 19.8 µM.
For the molecule `O=C(Nc1ccc(F)c(-c2cn3cc(-c4ccccc4)cnc3n2)c1)N1CC(F)C1` [Compound 317, 3-fluoro-N-(4-fluoro-3-(6-phenylimidazo[1,2-a]pyrimidin-2-yl)phenyl)azetidine-1-carboxamide], the EC50 in test [1] (setting [5]) is 0.012 µM; in test [2] it was 0.014 µM; in test [3], 0.038 µM; in test [4], 0.012 µM.
In the case of `O=C(Nc1ccc(F)c(-c2cn3cc(C4=CCOCC4)cnc3n2)c1)N1CC(F)C1` [Compound 318], the EC50 worked out at 0.019 µM in test [1] (setting [5]), 0.031 µM in test [2], 0.132 µM in test [3] and 0.146 µM in test [4].
`O=C(Nc1ccc(F)c(-c2cn3cc(-c4ccccc4)cnc3n2)c1)N1CC(F)(F)C1` [Compound 319]: the EC50 stood at 0.02 µM in test [1] (setting [5]), 0.033 µM in test [2], 0.102 µM in test [3] and 0.02 µM in test [4].
On to `O=C(Nc1ccc(F)c(-c2cn3cc(C4=CCOCC4)cnc3n2)c1)N1CC(F)(F)C1` [Compound 320], for which the EC50 in test [1] (setting [5]) was determined as 0.035 µM; in test [2] it was 0.058 µM; in test [3] it was 0.18 µM; in test [4], 0.186 µM.
As to `O=C(Nc1ccc(F)c(-c2cn3cc(C4=CCOCC4)cnc3n2)c1)N1CCC1` [Compound 322], the EC50 in test [1] (setting [5]) worked out at 0.02 µM; in test [2] it was 0.043 µM; in test [3], 0.157 µM; in test [4], 0.076 µM.
For `CN(C)C(=O)Nc1ccc(F)c(-c2cn3cc(-c4ccccc4)cnc3n2)c1` [Compound 323] the same measures were 0.047 µM, 0.097 µM, 0.278 µM and 0.046 µM.
Regarding `CN(C)C(=O)Nc1ccc(F)c(-c2cn3cc(C4=CCOCC4)cnc3n2)c1` [Compound 324], the EC50 came to 0.047 µM in test [1] (setting [5]), 0.288 µM in test [2], 1.57 µM in test [3] and 0.253 µM in test [4].
`CCN(C)C(=O)Nc1ccc(F)c(-c2cn3cc(-c4ccccc4)cnc3n2)c1` [Compound 327]: the EC50 in test [1] (setting [5]) is 0.102 µM; in test [2], 0.167 µM; in test [3], 0.459 µM; in test [4], 0.05 µM.
As for `CCN(C)C(=O)Nc1ccc(F)c(-c2cn3cc(C4=CCOCC4)cnc3n2)c1` [Compound 328], the EC50 in test [1] (setting [5]) amounted to 0.167 µM; in test [2], 0.387 µM; in test [3], 1.5 µM; in test [4] it was 0.302 µM.
On to `Cc1ncc(C(=O)Nc2ccc(F)c(-c3cn4cc(-c5ccccc5)cnc4n3)c2)o1` [Compound 329], for which the EC50 in test [1] (setting [5]) is 0.055 µM; in test [2], 0.026 µM; in test [3] it was 0.057 µM; in test [4], 0.007 µM.
`Cc1ncc(C(=O)Nc2ccc(F)c(-c3cn4cc(C5=CCOCC5)cnc4n3)c2)o1` [Compound 330]: the EC50 in test [1] (setting [5]) worked out at 0.036 µM; in test [2], 0.028 µM; in test [3] it was 0.114 µM; in test [4], 0.104 µM.
The corresponding values for `CC(C)OC(=O)Nc1ccc(F)c(-c2cn3cc(-c4ccccc4)cnc3n2)c1` [Compound 331] are 0.116 µM, 0.396 µM, 0.36 µM and 0.053 µM.
`CC(C)OC(=O)Nc1ccc(F)c(-c2cn3cc(C4=CCOCC4)cnc3n2)c1` [Compound 332]: the EC50 in test [1] (setting [5]) came out at 0.124 µM; in test [2], 0.166 µM; in test [3] it was 0.592 µM; in test [4] it was 0.134 µM.
For `Cc1nc(C)c(C(=O)Nc2cccc(-c3cn4cc(C5=CCOCC5)cnc4n3)c2)o1` [Compound 335] the same measures were 0.114 µM, 0.178 µM, 0.521 µM and 0.407 µM.
For `Cc1nc(C)c(C(=O)Nc2cccc(-c3cn4cc(-c5ccccc5)cnc4n3)c2)o1` [Compound 336] the same measures were 0.086 µM, 0.074 µM, 0.168 µM and 0.045 µM.
For `O=C(Nc1cccc(-c2cn3cc(-c4ccccc4)cnc3n2)c1)N1CC[C@@H](F)C1` [Compound 337] the same measures were 0.024 µM, 0.072 µM, 0.195 µM and 0.068 µM.
Take `Cc1nc(C)c(C(=O)Nc2ccc(F)c(-c3nc4ncc(-c5ccccc5)cn4c3F)c2)o1` [Compound 338]: the EC50 was 0.04 µM in test [1] (setting [5]), 0.047 µM in test [2], 0.101 µM in test [3] and 0.018 µM in test [4].
Consider `Nc1cc(-c2cnc3nc(-c4cc(NC(=O)N5CCCC5)ccc4F)cn3c2)ccn1` [Compound 342], for which the half-maximal effective concentration (EC50) in test [1] (setting [5]) turned out to be 0.364 µM; in test [2], 2.14 µM; in test [3], 14.6 µM; in test [4], 9.36 µM.
Turning to `CC(C)(C)OC(=O)N1CCC(Oc2ccc(-c3cnc4nc(-c5cc(NC(=O)N6CCCC6)ccc5Cl)cn4c3)cc2)CC1` [Compound 345], the 50% effective concentration (EC50) was 0.527 µM in test [1] (setting [5]), 0.251 µM in test [2], 0.955 µM in test [3] and 0.408 µM in test [4].
